Measurements published in patent EP2433948A1, “Use of a new class of nucleotide sugar as antibiotic or cytostatic agent” (Max-Planck-Gesellschaft zur Förderung der Wissenschaften …, priority 2010, dated 2012).

Biological target: E. coli MurA (Escherichia coli, UniProt P0A749)
Experiment: MurA activity/inhibition assay (phosphate release coupled to PNPase cleavage of fluorescent 7-methylguanosine)
Format: biochemical
Text: • (a) MurA performs the first step of UDP-muramic acid biosynthesis. After sequential binding of UNAG and phosphoenolpyruvate, a tetrahedral intermediate is formed that yields enolpyruvyl-UNAG after cleavage of inorganic phosphate. UNAG-3P most likely mimics this tetrahedral intermediate and thereby inhibits MurA catalysis by a competitive binding mechanism. (b) Determination of the Ki of UNAG-3P for MurA. Enolpyruvyl-UNAG formation catalyzed by MurA from E. coli in presence of PEP and UNAG-3P and varying UNAG concentrations under steady state conditions. MurA enzyme kinetics were followed by coupling the reaction to phosphate dependent cleavage of fluorescent 7-methylguanosine by nucleoside phosphorylase resulting in a strong decrease of the fluorescence at 400 nm (λexc = 300 nm). The UNAG-3P concentrations for each saturation curve were 0 µM (●), 15 µM (□) and 30 µM (Δ). A Lineweaver-Burk plot is shown as inset.
The enolpyruvyl activity of E. coli MurA was monitored by coupling phosphate release to cleavage of fluorescent 7-methylguanosine (Sigma) by bacterial purine-nucleoside phosphorylase (PNPase) (Sigma). […] The reactions were monitored by the decrease in fluorescence at 400 nm with excitation set to 300 nm in a FluoroMax-3 spectrofluorometer (HORIBA Jobin Yvon) with excitation and emission bandwidths of 5 nm. […]

Sequence of E. coli MurA (P0A749 whole entry): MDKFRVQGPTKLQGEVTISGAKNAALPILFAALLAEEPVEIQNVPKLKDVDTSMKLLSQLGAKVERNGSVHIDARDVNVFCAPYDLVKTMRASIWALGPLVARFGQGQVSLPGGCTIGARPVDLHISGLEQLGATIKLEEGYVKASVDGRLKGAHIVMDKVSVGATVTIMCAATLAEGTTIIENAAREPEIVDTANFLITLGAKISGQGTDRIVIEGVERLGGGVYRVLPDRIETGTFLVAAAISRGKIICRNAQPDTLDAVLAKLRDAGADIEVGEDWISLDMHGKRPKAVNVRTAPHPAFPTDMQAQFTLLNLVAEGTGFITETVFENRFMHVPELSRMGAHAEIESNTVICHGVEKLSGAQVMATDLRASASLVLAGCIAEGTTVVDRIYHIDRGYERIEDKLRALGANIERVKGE

## CC(=O)N[C@H]1[C@@H](OP(=O)(O)OP(=O)(O)OC[C@H]2O[C@@H](n3ccc(=O)[nH]c3=O)[C@H](O)[C@@H]2O)O[C@H](CO)[C@@H](O)[C@@H]1OP(=O)(O)O [UNAG-3P, Uridinediphosphate-2-N-acetyl-3-phosphate-glucosamine]
  Ki: 7 µM
